Series [1] relates to Echinochloa crus-galli (ECHCG). The experiment in a line: Pre-emergence biological efficacy, glasshouse pot test. The format is in vivo. As to conditions: 312 h, 1000 g/ha, after 13 days, 100=total damage, 0=no damage, read-out: Percentage damage caused to weed species ECHCG. The procedure, abridged: (§1)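 Pots sown with weed seeds, sprayed 1 day after sowing with test compound in acetone/water (50:50) plus 0.5% Tween 20 at 250 or 1000 g/ha. Plants grown in glasshouse at 24/16° C day/night, 14 h light, 65% humidity, watered twice daily. Damage scored visually after 13 days (0 = none, 100 = total).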

Series [2] deals with Amaranthus retroflexus (AMARE). The series is described as above. The format is in vivo. Particulars: 312 h, 1000 g/ha, after 13 days, 100=total damage, 0=no damage, read-out: Percentage damage caused to weed species AMARE. The procedure, abridged: as §1
Series [3] relates to Solanum nigrum (SOLNI). Described as above. The format is in vivo. Particulars: 312 h, 1000 g/ha, after 13 days, 100=total damage, 0=no damage, read-out: Percentage damage caused to weed species SOLNI. The procedure, abridged: as §1
For series [4], the system named is Ipomea hederaceae (IPOHE). Described as above. The format is in vivo. As to conditions: Ipomoea hederacea, 312 h, 1000 g/ha, after 13 days, 100=total damage, 0=no damage, read-out: Percentage damage caused to weed species IPOHE. An outline of the steps:
as §1

Series [5] has as its system Alopecurus myosuroides (ALOMY). Described as above. Particulars: 312 h, 1000 g/ha, after 13 days, 100=total damage, 0=no damage, read-out: Percentage damage caused to weed species ALOMY. The format is in vivo. An outline of the steps:
as §1

In series [6] the test system is Setaria faberi (SETFA). The description is as above. As to conditions: 312 h, 1000 g/ha, after 13 days, 100=total damage, 0=no damage, read-out: Percentage damage caused to weed species SETFA. The format is in vivo. An outline of the steps:
as §1

The subject of series [7] is Echinochloa crus-galli (ECHCG). The experiment in a line: Post-emergence biological efficacy, glasshouse pot test. The format is in vivo. Particulars: 312 h, 1000 g/ha, after 13 days, 100=total damage, 0=no damage, read-out: Percentage damage caused to weed species ECHCG. An outline of the steps: (§2)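 Species sown in soil and grown 8 days in glasshouse (24/16 °C day/night, 14 h light, 65% humidity), then sprayed with compound in acetone/water (50:50) with 0.5% Tween 20 at 250 or 1000 g/ha. Damage scored visually after 13 days (0 = none, 100 = total).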

The test system of series [8] is Amaranthus retroflexus (AMARE). Described as above. The format is in vivo. Particulars: 312 h, 1000 g/ha, after 13 days, 100=total damage, 0=no damage, read-out: Percentage damage caused to weed species AMARE. An outline of the steps: as §2
Series [9] relates to Solanum nigrum (SOLNI). Described as above. The format is in vivo. Particulars: 312 h, 1000 g/ha, after 13 days, 100=total damage, 0=no damage, read-out: Percentage damage caused to weed species SOLNI. An outline of the steps:
as §2

In series [10] the test system is Ipomea hederaceae (IPOHE). The series is described as above. The format is in vivo. Particulars: Ipomoea hederacea, 312 h, 1000 g/ha, after 13 days, 100=total damage, 0=no damage, read-out: Percentage damage caused to weed species IPONE. The procedure, abridged:
as §2

The test system of series [11] is Alopecurus myosuroides (ALOMY). The description is as above. The format is in vivo. Particulars: 312 h, 1000 g/ha, after 13 days, 100=total damage, 0=no damage, read-out: Percentage damage caused to weed species ALOMY. An outline of the steps:
as §2

Series [12] relates to Setaria faberi (SETFA). The series is described as above. Particulars: 312 h, 1000 g/ha, after 13 days, 100=total damage, 0=no damage, read-out: Percentage damage caused to weed species SETFA. The format is in vivo. An outline of the steps:
as §2

The term melting point denotes the temperature of the solid-liquid transition. The molecule `COC(=O)c1nc(-c2cnn(C)c2)nc(N)c1Cl` [Compound 2-71, 4-amino-5-chloro-6-methoxycarbonyl-2-(1-methyl-1H-pyrazol-4-yl)-pyrimidine] showed a melting point of 185 to 186 °C. In [1], the pest or weed control at 1000 g/ha was determined as 0%. Besides, the pest or weed control at 1000 g/ha in series [2] was 0%. In addition, in the series on Solanum nigrum (SOLNI) [3], the pest or weed control at 1000 g/ha came out at 0%. For the same molecule, the pest or weed control at 1000 g/ha in series [4] turned out to be 0%. Moreover, the pest or weed control at 1000 g/ha in series [5] came out at 0%. The pest or weed control at 1000 g/ha in the series on Setaria faberi (SETFA) [6] is 0%. Further, in [7], the pest or weed control at 1000 g/ha is 0%. Further, in [8], the pest or weed control at 1000 g/ha worked out at 0%. In addition, the pest or weed control at 1000 g/ha in the series on Solanum nigrum (SOLNI) [9] was 0%. The pest or weed control at 1000 g/ha in series [10] is 30%. Also, the pest or weed control at 1000 g/ha in series [11] was 0%. Moreover, the pest or weed control at 1000 g/ha in the series with Setaria faberi (SETFA) [12] came out at 0%.

As for `COC(=O)c1nc(-c2ccc(C#N)nc2)nc(N)c1Cl` [Compound 2-158, 4-amino-5-chloro-2-(2-cyanopyridin-5-yl)-6-methoxycarbonylpyrimidine], the melting point lay in the range of 210 to 213 °C. Also, in [1], the pest or weed control at 1000 g/ha worked out at 0%. Besides, the pest or weed control at 1000 g/ha in series [2] was determined as 0%. Besides, in the series with Solanum nigrum (SOLNI) [3], the pest or weed control at 1000 g/ha came to 0%. Moreover, in [4], the pest or weed control at 1000 g/ha was 0%. For the same molecule, the pest or weed control at 1000 g/ha in series [5] amounted to 0%. For the same molecule, in the series on Setaria faberi (SETFA) [6], the pest or weed control at 1000 g/ha is 0%. In addition, the pest or weed control at 1000 g/ha in series [7] is 0%. Further, in series [8], the pest or weed control at 1000 g/ha came to 0%. Also, in the series with Solanum nigrum (SOLNI) [9], the pest or weed control at 1000 g/ha was found to be 20%. Moreover, the pest or weed control at 1000 g/ha in [10] came out at 20%. The pest or weed control at 1000 g/ha in [11] was 0%. Moreover, the pest or weed control at 1000 g/ha with Setaria faberi (SETFA) [12] stood at 0%.

Regarding `CCOC(=O)c1nc(-c2ccccn2)nc(N)c1Cl` [Compound 3-149, 4-amino-5-chloro-6-ethoxycarbonyl-2-pyridin-2-ylpyrimidine], the melting point was 176 to 180 °C (dec.). Besides, the pest or weed control at 1000 g/ha in [1] turned out to be 0%. In series [2], the pest or weed control at 1000 g/ha amounted to 0%. Also, the pest or weed control at 1000 g/ha in the series on Solanum nigrum (SOLNI) [3] was 0%. For the same molecule, in series [4], the pest or weed control at 1000 g/ha stood at 0%. Also, the pest or weed control at 1000 g/ha in series [5] amounted to 0%. For the same molecule, in the series with Setaria faberi (SETFA) [6], the pest or weed control at 1000 g/ha is 0%. The pest or weed control at 1000 g/ha in series [7] is 0%. Besides, the pest or weed control at 1000 g/ha in series [8] was 0%. Moreover, the pest or weed control at 1000 g/ha in the series on Solanum nigrum (SOLNI) [9] came out at 0%. In addition, in [10], the pest or weed control at 1000 g/ha was 0%. For the same molecule, the pest or weed control at 1000 g/ha in series [11] worked out at 0%. Moreover, the pest or weed control at 1000 g/ha in the series on Setaria faberi (SETFA) [12] is 0%.

For `C=Cc1c(N)nc(-c2ccc(Cl)nc2)nc1C(=O)OC` [Compound 68-156, 4-amino-2-(6-chloropyridin-3-yl)-5-ethenyl-6-methoxycarbonyl-pyrimidine], the melting point was in the range of 194 to 195 °C. The pest or weed control at 1000 g/ha in series [1] was determined as 0%. Further, the pest or weed control at 1000 g/ha in [2] was 100%. For the same molecule, the pest or weed control at 1000 g/ha in the series on Solanum nigrum (SOLNI) [3] was found to be 40%. Also, in series [4], the pest or weed control at 1000 g/ha was found to be 40%. Also, in series [5], the pest or weed control at 1000 g/ha was determined as 10%. Further, in the series on Setaria faberi (SETFA) [6], the pest or weed control at 1000 g/ha is 10%. The pest or weed control at 1000 g/ha in series [7] is 0%. In addition, in [8], the pest or weed control at 1000 g/ha was determined as 100%. The pest or weed control at 1000 g/ha with Solanum nigrum (SOLNI) [9] stood at 90%. The pest or weed control at 1000 g/ha in series [10] came out at 50%. For the same molecule, the pest or weed control at 1000 g/ha in series [11] came to 0%. The pest or weed control at 1000 g/ha with Setaria faberi (SETFA) [12] worked out at 0%.

These data come from patent publication US20110136666A1, “CHEMICAL COMPOUNDS” (SYNGENTA CROP PROTECTION, INC., priority 2008, published 2011).
